Values quoted from earlier work in patent US7521425B2, “Anti-angiogenic compounds” (Covx Technologies Ireland Limited, priority 2005, dated 2009).

Legend:
[1] = biological target: m38C2; details: against immobilized BSA-conjugated β-diketone 1, read-out: apparent equilibrium dissociation constant
[2] = biological target: h38C2; details: against immobilized BSA-conjugated β-diketone 1, read-out: apparent equilibrium dissociation constant

Structure (SMILES) | Kd [1] | Kd [2]
CC(=O)CC(C)=O [β-diketone 2] | 38 µM | 7.6 µM
CC(=O)CC(=O)CCc1ccccc1 [β-diketone 3] | 0.43 µM | 1 µM
